Results as given in the NIST ThermoML archive (doi:10.1021/je800159w).
± gives the expanded uncertainty stated by the source.

Columns and labels:
[1] = refractive index (Na D-line) (dimensionless); conditions: 101.33 kPa, Liquid, Standard Abbe refractometry
[2] = 101.33 kPa, Liquid
[3] = xn = mol fraction of the nth substance listed; conditions: 101 kPa, Liquid
[4] = refractive index (Na D-line) (dimensionless); xn = mol fraction of the nth substance listed; conditions: 298.15 K, 101 kPa, Liquid, Standard Abbe refractometry

CCOS(=O)(=O)[O-].CC[n+]1cccc(C)c1 [1-ethyl-3-methylpyridinium ethylsulfate]
Conditions | mass density, [2] [kg/m3] | refractive index, [1] | viscosity, [2] [mPa·s]
298.15 K | 1222.26 ± 4.2 | 1.50666 ± 0.00068 | 161.4 ± 26
303.15 K | 1219.02 ± 4.2 | 1.50525 ± 0.00068 | 123.6 ± 15
308.15 K | 1215.78 ± 4.1 | 1.50386 ± 0.00068 | 96.9 ± 8.9
313.15 K | 1212.54 ± 4.1 | 1.50246 ± 0.00068 | 77.1 ± 4.8
318.15 K | 1209.39 ± 4.1 | 1.50106 ± 0.00068 | 62.2 ± 2.1
323.15 K | 1206.13 ± 4.1 | 1.49965 ± 0.00068 | 50.55 ± 0.86
328.15 K | 1202.86 ± 4 | 1.49825 ± 0.00068 | 42.32 ± 1.5
333.15 K | 1199.63 ± 4 | 1.49683 ± 0.00068 | 35.52 ± 1.3
338.15 K | 1196.43 ± 4 | 1.4954 ± 0.00068 | 30.11 ± 1.1
343.15 K | 1193.25 ± 3.9 | 1.49361 ± 0.00068 | 25.69 ± 0.96

CCOS(=O)(=O)[O-].CC[n+]1cccc(C)c1 [1-ethyl-3-methylpyridinium ethylsulfate] + CCO
[3]
Conditions | mass density, 298.15 K [kg/m3] | mass density, 313.15 K [kg/m3] | mass density, 328.15 K [kg/m3] | viscosity, 298.15 K [mPa·s] | viscosity, 313.15 K [mPa·s] | viscosity, 328.15 K [mPa·s]
x2 = 0.0609 | 1214.93 ± 3.8 | 1205.03 ± 3.7 | 1195.2 ± 3.6 | 116.7 ± 14 | 55.2 ± 1.1 | 31.2 ± 1.1
x2 = 0.1108 | 1208.33 ± 3.5 | 1198.38 ± 3.4 | 1188.52 ± 3.4 | 96.9 ± 8.9 | 48.57 ± 1.7 | 28.12 ± 1
x2 = 0.2066 | 1193.93 ± 3 | 1183.86 ± 2.9 | 1173.91 ± 2.8 | 68 ± 3 | 36.25 ± 1.3 | 21.86 ± 0.83
x2 = 0.3083 | 1175.71 ± 2.5 | 1165.53 ± 2.4 | 1155.46 ± 2.3 | 45.35 ± 1.6 | 25.91 ± 0.93 | 16.41 ± 0.68
x2 = 0.4004 | 1155.73 ± 2 | 1145.51 ± 2 | 1135.36 ± 1.9 | 31.11 ± 1.1 | 18.88 ± 0.74 | 12.52 ± 0.58
x2 = 0.4998 | 1129.53 ± 1.6 | 1119.07 ± 1.6 | 1108.74 ± 1.5 | 20.04 ± 0.76 | 12.92 ± 0.59 | 8.971 ± 0.51
x2 = 0.6034 | 1094.96 ± 1.2 | 1084.3 ± 1.2 | 1073.73 ± 1.1 | 12.17 ± 0.57 | 8.317 ± 0.5 | 6.023 ± 0.46
x2 = 0.7034 | 1051.68 ± 0.86 | 1040.72 ± 0.81 | 1029.83 ± 0.75 | 7.452 ± 0.48 | 5.332 ± 0.45 | 3.99 ± 0.43
x2 = 0.8452 | 961.67 ± 0.64 | 950.09 ± 0.69 | 938.48 ± 0.74 | 3.322 ± 0.42 | 2.502 ± 0.41 | 1.943 ± 0.41
x2 = 0.9389 | 870.77 ± 1 | 858.52 ± 1.1 | 846.1 ± 1.1 | 1.812 ± 0.41 | 1.388 ± 0.4 | 1.086 ± 0.4

[4]
Conditions | refractive index
x2 = 0.0609 | 1.50392 ± 0.00065
x2 = 0.1108 | 1.50181 ± 0.00062
x2 = 0.2066 | 1.4973 ± 0.00058
x2 = 0.3083 | 1.49126 ± 0.00053
x2 = 0.4004 | 1.48469 ± 0.00049
x2 = 0.4998 | 1.476 ± 0.00045
x2 = 0.6034 | 1.46448 ± 0.00041
x2 = 0.7034 | 1.45003 ± 0.00038
x2 = 0.8452 | 1.41977 ± 0.00034
x2 = 0.9389 | 1.38864 ± 0.00032
